Test results reported in ChEMBL document CHEMBL4507291 (2021).

Key:
Conditions in all cases: Compound concentration 1.0 uM
[1] = molecular target: Calcium/calmodulin-dependent protein kinase kinase 2 (Homo sapiens) (UniProt Q96RR4); test: CAMKK2 (CaMKK beta) Kinase screen
[2] = molecular target: T1, Ephrin type-B receptor 2 (Homo sapiens) (UniProt P29323); test: EPHB2 Kinase screen
T1 sequence (whole entry): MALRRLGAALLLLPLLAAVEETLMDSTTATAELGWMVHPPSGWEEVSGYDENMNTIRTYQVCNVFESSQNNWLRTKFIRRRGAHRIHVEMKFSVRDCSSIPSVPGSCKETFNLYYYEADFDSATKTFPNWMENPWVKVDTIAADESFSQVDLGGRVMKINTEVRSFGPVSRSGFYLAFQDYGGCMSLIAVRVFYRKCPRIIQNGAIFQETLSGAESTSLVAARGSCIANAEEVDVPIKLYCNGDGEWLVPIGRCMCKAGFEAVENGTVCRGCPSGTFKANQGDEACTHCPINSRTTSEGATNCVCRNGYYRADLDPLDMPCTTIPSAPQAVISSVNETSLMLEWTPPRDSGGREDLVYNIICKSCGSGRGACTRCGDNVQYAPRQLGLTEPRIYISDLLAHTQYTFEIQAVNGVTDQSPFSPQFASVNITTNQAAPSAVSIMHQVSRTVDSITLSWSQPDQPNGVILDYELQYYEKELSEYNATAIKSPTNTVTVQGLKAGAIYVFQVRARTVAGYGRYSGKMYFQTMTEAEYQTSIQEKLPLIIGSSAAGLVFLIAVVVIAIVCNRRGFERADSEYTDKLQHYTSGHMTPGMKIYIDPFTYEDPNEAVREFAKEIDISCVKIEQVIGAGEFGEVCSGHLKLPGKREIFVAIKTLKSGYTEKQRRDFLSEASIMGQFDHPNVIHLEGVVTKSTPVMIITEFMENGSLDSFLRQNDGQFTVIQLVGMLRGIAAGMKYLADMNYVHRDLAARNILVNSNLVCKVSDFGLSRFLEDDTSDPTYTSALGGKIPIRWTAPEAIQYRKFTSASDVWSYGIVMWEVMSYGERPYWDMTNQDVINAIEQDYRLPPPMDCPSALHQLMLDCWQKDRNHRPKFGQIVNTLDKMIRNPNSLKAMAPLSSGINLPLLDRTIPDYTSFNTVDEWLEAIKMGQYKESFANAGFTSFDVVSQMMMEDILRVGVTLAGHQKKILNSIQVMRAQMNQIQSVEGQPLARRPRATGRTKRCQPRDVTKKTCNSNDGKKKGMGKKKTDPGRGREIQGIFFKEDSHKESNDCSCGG

[3] = molecular target: Tyrosine-protein kinase Fgr (Homo sapiens) (UniProt P09769); test: FGR Kinase screen
[4] = molecular target: T2, Serine/threonine-protein kinase D3 (Homo sapiens) (UniProt O94806); test: PRKCN (PKD3) Kinase screen
T2 sequence (whole entry): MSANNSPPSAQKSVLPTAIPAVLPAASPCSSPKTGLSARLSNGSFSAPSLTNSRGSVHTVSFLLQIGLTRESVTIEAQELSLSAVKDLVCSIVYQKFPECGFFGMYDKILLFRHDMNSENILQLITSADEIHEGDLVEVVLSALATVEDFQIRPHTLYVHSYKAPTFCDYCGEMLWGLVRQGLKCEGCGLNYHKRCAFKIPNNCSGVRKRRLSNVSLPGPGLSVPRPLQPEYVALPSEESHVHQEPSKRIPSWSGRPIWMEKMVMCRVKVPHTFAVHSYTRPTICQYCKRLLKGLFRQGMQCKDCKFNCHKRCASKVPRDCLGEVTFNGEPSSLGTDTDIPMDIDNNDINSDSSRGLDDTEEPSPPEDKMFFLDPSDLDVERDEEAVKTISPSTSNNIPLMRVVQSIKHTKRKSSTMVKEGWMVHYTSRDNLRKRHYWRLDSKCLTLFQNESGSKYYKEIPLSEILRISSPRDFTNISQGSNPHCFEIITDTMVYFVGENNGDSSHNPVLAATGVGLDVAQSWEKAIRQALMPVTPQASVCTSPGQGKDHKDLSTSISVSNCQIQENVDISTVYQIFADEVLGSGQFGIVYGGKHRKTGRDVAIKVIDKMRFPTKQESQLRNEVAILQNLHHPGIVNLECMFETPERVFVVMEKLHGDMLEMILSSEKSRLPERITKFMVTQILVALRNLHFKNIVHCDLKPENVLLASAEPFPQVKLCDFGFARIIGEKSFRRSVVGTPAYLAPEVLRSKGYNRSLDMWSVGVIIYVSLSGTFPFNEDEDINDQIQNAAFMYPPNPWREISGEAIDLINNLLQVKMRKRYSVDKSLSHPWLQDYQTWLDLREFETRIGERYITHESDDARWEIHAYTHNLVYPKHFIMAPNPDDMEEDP

[5] = molecular target: T3, cAMP-dependent protein kinase catalytic subunit PRKX (Homo sapiens) (UniProt P51817); test: PRKX Kinase screen
T3 sequence (whole entry): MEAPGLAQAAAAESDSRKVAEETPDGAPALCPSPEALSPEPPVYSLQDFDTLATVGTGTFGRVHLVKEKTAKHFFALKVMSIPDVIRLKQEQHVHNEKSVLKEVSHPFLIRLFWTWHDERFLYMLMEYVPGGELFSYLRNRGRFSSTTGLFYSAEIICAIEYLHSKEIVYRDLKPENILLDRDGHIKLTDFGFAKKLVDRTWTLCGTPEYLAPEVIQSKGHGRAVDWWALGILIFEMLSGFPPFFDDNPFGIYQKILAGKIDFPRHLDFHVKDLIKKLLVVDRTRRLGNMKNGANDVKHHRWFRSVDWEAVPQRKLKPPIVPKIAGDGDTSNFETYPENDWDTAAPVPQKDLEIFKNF

[6] = molecular target: T4, Serine/threonine-protein kinase 17A (Homo sapiens) (UniProt Q9UEE5); test: STK17A (DRAK1) Kinase screen
T4 sequence (whole entry): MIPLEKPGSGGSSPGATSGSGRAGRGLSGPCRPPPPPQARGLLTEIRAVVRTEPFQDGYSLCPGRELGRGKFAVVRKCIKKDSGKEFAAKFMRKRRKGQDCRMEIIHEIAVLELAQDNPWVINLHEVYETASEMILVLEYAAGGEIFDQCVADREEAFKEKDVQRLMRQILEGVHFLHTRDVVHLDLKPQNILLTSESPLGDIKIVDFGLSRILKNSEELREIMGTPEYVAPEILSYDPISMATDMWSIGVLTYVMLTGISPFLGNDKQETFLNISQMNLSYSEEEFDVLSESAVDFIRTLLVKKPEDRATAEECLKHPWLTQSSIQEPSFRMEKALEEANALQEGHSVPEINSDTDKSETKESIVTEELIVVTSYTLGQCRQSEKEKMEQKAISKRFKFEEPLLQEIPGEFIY

Measured: inhibition

Sequence of Calcium/calmodulin-dependent protein kinase kinase 2 (Homo sapiens) (Q96RR4 2-588 limits assumed): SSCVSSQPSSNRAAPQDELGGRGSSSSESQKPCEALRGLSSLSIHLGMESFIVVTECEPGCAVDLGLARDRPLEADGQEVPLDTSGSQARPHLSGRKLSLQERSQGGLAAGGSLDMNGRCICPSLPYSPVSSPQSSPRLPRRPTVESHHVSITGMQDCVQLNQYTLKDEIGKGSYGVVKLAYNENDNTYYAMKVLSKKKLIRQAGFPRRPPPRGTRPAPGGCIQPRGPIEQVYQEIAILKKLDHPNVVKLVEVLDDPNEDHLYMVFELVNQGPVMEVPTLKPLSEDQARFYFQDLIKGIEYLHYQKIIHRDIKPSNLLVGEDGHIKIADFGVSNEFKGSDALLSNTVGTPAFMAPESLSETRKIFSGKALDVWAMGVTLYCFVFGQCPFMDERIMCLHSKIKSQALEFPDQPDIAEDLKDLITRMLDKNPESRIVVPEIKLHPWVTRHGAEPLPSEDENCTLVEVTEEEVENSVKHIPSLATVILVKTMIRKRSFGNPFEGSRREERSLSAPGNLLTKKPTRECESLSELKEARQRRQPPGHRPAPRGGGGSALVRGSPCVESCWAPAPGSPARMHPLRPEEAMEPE
Sequence of Tyrosine-protein kinase Fgr (Homo sapiens) (P09769 2-529 limits assumed): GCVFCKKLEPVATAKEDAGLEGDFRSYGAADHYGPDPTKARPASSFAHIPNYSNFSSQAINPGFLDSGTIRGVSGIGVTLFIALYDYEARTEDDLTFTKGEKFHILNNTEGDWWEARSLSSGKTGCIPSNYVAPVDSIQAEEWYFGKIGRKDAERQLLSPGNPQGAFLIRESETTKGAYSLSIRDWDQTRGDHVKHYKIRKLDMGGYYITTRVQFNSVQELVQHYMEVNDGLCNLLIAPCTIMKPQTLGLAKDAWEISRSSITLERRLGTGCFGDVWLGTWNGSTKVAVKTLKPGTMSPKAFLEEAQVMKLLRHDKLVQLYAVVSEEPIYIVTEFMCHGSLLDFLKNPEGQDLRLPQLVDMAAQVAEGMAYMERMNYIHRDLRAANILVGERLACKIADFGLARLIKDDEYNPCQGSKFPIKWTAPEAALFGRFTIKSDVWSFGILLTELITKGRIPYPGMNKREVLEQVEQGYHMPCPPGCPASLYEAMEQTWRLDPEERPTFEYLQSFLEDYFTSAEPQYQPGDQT

C[C@@H]1CN(c2cc(-c3n[nH]c4ccc(OC5(C)CC5)cc34)ncn2)C[C@H](C)O1 [MLi-2]
inactive: [1] 19.8% | [2] -1.14% | [3] -2.24% | [4] 21.1% | [5] 1.54% | [6] -2.27%
